Measurements published in patent US9482923B2, “Colored composition and image display structure” (FUJIFILM CORPORATION, priority 2011, dated 2016).

Legend:
Assay type in all cases: physicochemical
[1] = Measurement of viscosity of dye solutions in n-hexane (R-type viscometer); details: 20° C.; for Viscosity (5%): 5% by mass solution in n-hexane
[2] = Solubility of the dye in n-hexane; details: for Solubility (% by mass): in n-hexane at 25° C. and 0.1 MPa; for Solubility (in words): n-hexane
Protocol: 3. Solubility in n-Hexane
The solubility of each of the dyes in n-hexane (solvent) was determined as follows.
Each of the dyes to be measured was dissolved in n-hexane heated at 50° C., thereby preparing a saturated solution. The saturated solution obtained was then left in an environment of 25° C. and 0.1 MPa for 1 hour. The precipitated dye was filtered, and the precipitation amount was measured, from which the solubility (% by mass) of the dye in n-hexane at 25° C. and 0.1 MPa was calculated.

[3] = Measurement of relative dielectric constant of the dye (LCR meter, extrapolation); details: extrapolated from 5, 7.5 and 10% by mass n-hexane solutions, 20° C., 40% RH, 1 kHz
Protocol: 4. Measurement of Relative Dielectric Constant
Solutions of the dye in n-hexane having concentrations of 5% by mass, 7.5% by mass and 10% by mass, respectively, were prepared, and individually injected into glass cells each having transparent indium-tin-oxide electrodes and a cell gap of 10 μm. The electrical capacities of the resultant cells were measured at 20° C. and 40% RH using a type 2353 LCR meter (manufactured by NF Corporation) at a measurement frequency of 1 kHz. The electrical capacity of n-hexane was also measured as a control sample. The relative dielectric constant of the dye was calculated based on the extrapolation method using the dielectric constants of the above prepared dye solutions calculated from the their electric capacities.

[4] = Absorption maximum wavelength and absorption coefficient of colored composition (visible-light spectrophotometer); parameters: Absorption Coefficient (ε): unit not given here; details: n-hexane solution; for Absorption Coefficient (ε): calculated by Lambert-Beer law
Protocol: Each of the dyes shown above as Exemplary Compounds D-2, D-11, D-13, D-14, D-25, D-37, E-2, E-3, and E-7 was dissolved in a solvent (n-hexane) to make a 3% by mass solution, thereby preparing a colored composition (ink). Each of the colored compositions (inks) obtained was evaluated with respect to its color, absorption maximum wavelength (λmax), absorbance (abs), absorption coefficient (∈), viscosity, and relative dielectric constant, and solubility (% by mass) of each of the dyes in a solvent.
2. Absorption Maximum Wavelength, Absorbance, and Absorption Coefficient of Colored Composition
The absorption maximum wavelength (λmax) and the absorbance (abs) of the colored composition were measured using a visible-light spectrophotometer (trade name: UV-1800PC, manufactured by Shimadzu Corporation). The absorption coefficient (∈) was calculated based on the Lambert-Beer law.

SMILES	Viscosity (5%) [1] [mPa · S]	Viscosity (10%) ([1]; 10% by mass solution in n-hexane) [mPa · S]	Solubility (% by mass) [2] [% by mass]	Relative Dielectric Constant [3]	Absorption Maximum Wavelength λmax [4] [nm]	Absorption Coefficient (ε) [4]	Solubility (in words) [2]
CCCCCCCCCCCCN(CCCCCCCCCCCC)c1ccc(C=C2C(=O)ON=C2c2ccccc2)cc1 [D-2]	2.1	3.2	10.5	8.2	468	4.50 × 10^4	–
CCCCOC(=O)CN(CC(=O)OCCCC)c1ccc(C=C2C(=O)ON=C2C(C)(C)C)cc1 [D-11]	2.1	–	5.0	–	459	3.80 × 10^4	–
CCCCCCCCCCCCn1cc(C=C2C(=O)ON=C2c2ccccc2)c2ccccc21 [D-25]	2.1	–	8.0	–	426	3.66 × 10^4	–
CCCCCCN(CCCCCC)c1ccc(C=C2C(=O)ON=C2C(C)(C)C)c(C)c1 [D-37]	–	–	1.2	–	465	4.10 × 10^4	–
Cc1cc(C=C2C(=O)ON=C2C(C)(C)C)c(C)n1-c1ccc(C(=O)O)cc1 [D-101, reference compound]	–	–	0.015	–	–	–	low solubility
COc1ccc(C2=NOC(=O)C2=Cc2ccc(N(CC(=O)O)CC(=O)O)cc2)cc1 [D-102, reference compound]	–	–	0.008	–	–	–	low solubility

Results, then the molecule that gave them:

Viscosity (5%) [1] [mPa · S]	Viscosity (10%) ([1]; 10% by mass solution in n-hexane) [mPa · S]	Solubility (% by mass) [2] [% by mass]	Relative Dielectric Constant [3]	Absorption Maximum Wavelength λmax [4] [nm]	Absorption Coefficient (ε) [4]	Solubility (in words) [2]	SMILES
2.1	–	6.5	9.5	515	5.10 × 10^4	–	CCCCCCCCCCCCN(CCCCCCCCCCCC)c1ccc(C=CC=C2C(=O)ON=C2C(C)(C)C)c(C)c1 [E-2]
2.1	–	7.2	9.0	530	5.20 × 10^4	–	CCCCCCCCN(CCCCCCCC)c1ccc(C=CC=C2C(=O)ON=C2C(C)(C)C)c(OC)c1 [E-3]
2.3	–	5.0	–	556	5.20 × 10^4	–	CCCCCCCCCCCCN(CCCCCCCCCCCC)c1ccc(C=CC=CC=C2C(=O)ON=C2C)c(C)c1 [E-7]
